The text below walks through data of ChEMBL document CHEMBL1828601, “Small molecule peptidomimetic inhibitors of importin α/β mediated nuclear transport” (Bioorg Med Chem, 2010).

Activity calls are given as the source filed them. How the calls were made is not given here.

The subject of the test is FGM. In words: Inhibition of importin alpha/beta-mediated nuclear transportation of Alexa555-BSA-NLS in human FGM cell nucleus at 500 uM after 30 mins by fluorescence microscopy. Format: cell-based.
Turning to `N[C@@H](CC(=O)O)C(=O)Nc1ccc(C(=O)N[C@@H](CCc2ccccc2)C(=O)O)cc1OCc1ccccc1`, the inhibition result is “inactive”. The same measure for `N[C@@H](Cc1ccc2ccccc2c1)C(=O)Nc1ccc(C(=O)N[C@@H](CCc2ccccc2)C(=O)O)cc1OCc1ccccc1`: “inactive”; for `N[C@@H](CO)C(=O)N1C[C@@H](C(=O)NCCc2c[nH]c3ccccc23)[C@H](C(=O)NCCc2c[nH]c3ccccc23)C1`: “inactive”; for `NC(=O)C[C@H](N)C(=O)Nc1ccc(C(=O)N[C@@H](CCc2ccccc2)C(=O)O)cc1OCc1ccccc1`: “inactive”. Take `N[C@@H](CC(=O)O)C(=O)N1C[C@@H](C(=O)NCCc2c[nH]c3ccccc23)[C@H](C(=O)NCCc2c[nH]c3ccccc23)C1`: the inhibition entry is “inactive”. The same measure for `CC[C@H](C)[C@H](N)C(=O)N1C[C@@H](C(=O)NCCc2c[nH]c3ccccc23)[C@H](C(=O)NCCc2c[nH]c3ccccc23)C1`: “inactive”. On to `NCCCC[C@H](N)C(=O)Nc1ccc(C(=O)N[C@@H](CCc2ccccc2)C(=O)O)cc1OCc1ccccc1`, for which the inhibition entry is “Active”. To `N[C@@H](Cc1ccc(Cl)cc1)C(=O)Nc1ccc(C(=O)N[C@@H](CCc2ccccc2)C(=O)O)cc1OCc1ccccc1` belongs “inactive”; to `C[C@H](N)C(=O)Nc1ccc(C(=O)N[C@@H](CCc2ccccc2)C(=O)O)cc1OCc1ccccc1`, “inactive”. The same measure for `CC(C)COc1cc(C(=O)N[C@@H](Cc2ccc3ccccc3c2)C(=O)O)ccc1NC(=O)[C@@H](N)Cc1ccc(O)cc1`: “Active”. Take `CSCC[C@H](N)C(=O)N1C[C@@H](C(=O)NCCc2c[nH]c3ccccc23)[C@H](C(=O)NCCc2c[nH]c3ccccc23)C1`: the inhibition result is “inactive”. To `CC(C)COc1cc(C(=O)N[C@@H](Cc2ccc3ccccc3c2)C(=O)O)ccc1NC(=O)[C@@H](N)CO` belongs “inactive”; to `CC(C)COc1cc(C(=O)N[C@@H](Cc2ccc3ccccc3c2)C(=O)O)ccc1NC(=O)[C@H](C)N`, “Active”; to `CSCC[C@H](N)C(=O)Nc1ccc(C(=O)N[C@@H](Cc2ccc3ccccc3c2)C(=O)O)cc1OCC(C)C`, “inactive”. The same measure for `N[C@@H](Cc1ccc(O)cc1)C(=O)Nc1ccc(C(=O)N[C@@H](CCc2ccccc2)C(=O)O)cc1OCc1ccccc1`: “Active”; for `CC(C)COc1cc(C(=O)N[C@@H](Cc2ccc3ccccc3c2)C(=O)O)ccc1NC(=O)[C@@H](N)CCCCN`: “inactive”.

Consider `CC(C)COc1cc(C(=O)N[C@@H](Cc2ccc3ccccc3c2)C(=O)O)ccc1NC(=O)[C@@H](N)[C@@H](C)O`, for which the inhibition entry is “inactive”. On to `C[C@H](N)C(=O)N1C[C@@H](C(=O)NCCc2c[nH]c3ccccc23)[C@H](C(=O)NCCc2c[nH]c3ccccc23)C1`, for which the inhibition result was “inactive”. To `NCC(=O)Nc1ccc(C(=O)N[C@@H](CCc2ccccc2)C(=O)O)cc1OCc1ccccc1` belongs “Active”; to `N[C@@H](Cc1ccccc1)C(=O)Nc1ccc(C(=O)N[C@@H](CCc2ccccc2)C(=O)O)cc1OCc1ccccc1`, “Active”; to `N[C@@H](CCc1ccccc1)C(=O)Nc1ccc(C(=O)N[C@@H](CCc2ccccc2)C(=O)O)cc1OCc1ccccc1`, “Active”. To `N[C@@H](Cc1c[nH]cn1)C(=O)Nc1ccc(C(=O)N[C@@H](CCc2ccccc2)C(=O)O)cc1OCc1ccccc1` belongs “inactive”; to `CC(C)COc1cc(C(=O)N[C@@H](Cc2ccc3ccccc3c2)C(=O)O)ccc1NC(=O)CN`, “inactive”. To `CC[C@H](N)C(=O)Nc1ccc(C(=O)N[C@@H](Cc2ccc3ccccc3c2)C(=O)O)cc1OCC(C)C` belongs “inactive”; to `C[C@@H](O)[C@H](N)C(=O)Nc1ccc(C(=O)N[C@@H](CCc2ccccc2)C(=O)O)cc1OCc1ccccc1`, “Active”; to `CSCC[C@H](N)C(=O)Nc1ccc(C(=O)N[C@@H](CCc2ccccc2)C(=O)O)cc1OCc1ccccc1`, “Active”.
